From patent US11524968B2, “Heterocyclic compound as a protein kinase inhibitor” (HK inno.N Corporation, priority 2017, dated 2022)
pIC50: −log10 of the molar value.

Target: JAK1 (Homo sapiens (Human), UniProt P23458)
Assay: Analysis of JAK1 activity inhibition ability (ADP-Glo Kinase Assay)
Assay type: biochemical
Conditions: JAK1 enzyme, ADP-Glo luminescence, ATP 250 uM, IRS-itide substrate, 30° C. 40 minutes; read-out: IC50
Procedure, shortened: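 ADP-Glo luminescence read-out of ADP production, with IC50 taken as the concentration halving JAK1 activity relative to control. Enzyme was incubated 40 min at 30 °C with compound, IRS-itide (40 ng/mL) and ATP (250 uM), concentrations as prepared in pH 7.5 Tris-HCl/MgCl2/BSA/DTT buffer.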

Sequence of JAK1 (P23458 whole entry): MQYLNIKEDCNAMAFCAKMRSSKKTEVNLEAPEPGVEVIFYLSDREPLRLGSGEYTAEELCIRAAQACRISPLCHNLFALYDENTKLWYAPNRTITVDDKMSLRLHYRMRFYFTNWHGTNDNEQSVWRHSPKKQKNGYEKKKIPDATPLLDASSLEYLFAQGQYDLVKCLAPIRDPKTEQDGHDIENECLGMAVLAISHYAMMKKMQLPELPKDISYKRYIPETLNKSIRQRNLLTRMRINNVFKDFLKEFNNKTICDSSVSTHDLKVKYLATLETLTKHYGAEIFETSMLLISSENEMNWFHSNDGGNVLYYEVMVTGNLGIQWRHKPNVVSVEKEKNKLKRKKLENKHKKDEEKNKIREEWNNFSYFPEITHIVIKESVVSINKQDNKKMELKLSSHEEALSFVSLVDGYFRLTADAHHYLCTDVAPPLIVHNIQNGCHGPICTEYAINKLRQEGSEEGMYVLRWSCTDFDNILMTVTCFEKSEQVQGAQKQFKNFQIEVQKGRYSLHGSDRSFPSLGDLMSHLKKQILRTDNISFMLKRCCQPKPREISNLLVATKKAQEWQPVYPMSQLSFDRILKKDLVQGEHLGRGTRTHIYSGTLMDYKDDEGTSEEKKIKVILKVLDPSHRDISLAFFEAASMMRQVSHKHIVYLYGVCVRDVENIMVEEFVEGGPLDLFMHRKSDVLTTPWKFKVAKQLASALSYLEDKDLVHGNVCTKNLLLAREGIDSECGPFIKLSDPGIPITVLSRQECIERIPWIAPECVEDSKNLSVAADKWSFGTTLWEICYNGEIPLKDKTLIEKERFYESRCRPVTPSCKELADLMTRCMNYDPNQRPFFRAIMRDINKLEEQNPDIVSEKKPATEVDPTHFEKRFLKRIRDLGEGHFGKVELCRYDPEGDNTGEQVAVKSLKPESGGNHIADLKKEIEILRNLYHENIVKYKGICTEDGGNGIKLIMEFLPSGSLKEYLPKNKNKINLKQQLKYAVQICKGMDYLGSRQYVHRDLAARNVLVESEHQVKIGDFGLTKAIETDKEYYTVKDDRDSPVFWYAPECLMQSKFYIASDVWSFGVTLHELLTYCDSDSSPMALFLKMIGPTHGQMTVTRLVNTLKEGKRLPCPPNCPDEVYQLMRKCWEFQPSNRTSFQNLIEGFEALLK

| SMILES | pIC50 |
| --- | --- |
| CC1CN(C2(CC#N)COC2)CC=C1c1cc(NC(=O)C2CC2)nc2[nH]ccc12 (stereo not drawn) [Example 613, N-(4-(1-(3-(cyanomethyl)oxetan-3-yl)-3-methyl-1,2,3,6-tetrahydropyridin-4-yl)-1H-pyrrolo[2,3-b]pyridin-6-yl)cyclopropanecarboxamide] | 6.70 to 7.70 |
| N#CCC1(N2CC=C(c3cc(NC(=O)C4CC4)nc4[nH]ccc34)CC2)CNC1 [Example 615, N-(4-(1-(3-(cyanomethyl)azetidin-3-yl)-1,2,3,6-tetrahydropyridin-4-yl)-1H-pyrrolo[2,3-b]pyridin-6-yl)cyclopropanecarboxamide] | 6.70 to 7.70 |
| CCS(=O)(=O)N1CC(CC#N)(N2CC=C(c3cc(NC(=O)C4CC4)nc4[nH]ccc34)CC2)C1 [Example 616, N-(4-(1-(3-(cyanomethyl)-1-(ethylsulfonyl)azetidin-3-yl)-1,2,3,6-tetrahydropyridin-4-yl)-1H-pyrrolo[2,3-b]pyridin-6-yl)cyclopropanecarboxamide] | > 7.70 |
| CC(C)S(=O)(=O)N1CC(CC#N)(N2CC=C(c3cc(NC(=O)C4CC4)nc4[nH]ccc34)CC2)C1 [Example 617, N-(4-(1-(3-(cyanomethyl)-1-(isopropylsulfonyl)azetidin-3-yl)-1,2,3,6-tetrahydropyridin-4-yl)-1H-pyrrolo[2,3-b]pyridin-6-yl)cyclopropanecarboxamide] | > 7.70 |
| N#CCC1(N2CC=C(c3cc(NC(=O)C4CC4)nc4[nH]ccc34)CC2)CN(C2CCNCC2)C1 [Example 620, N-(4-(1-(3-(cyanomethyl)-1-(piperidin-4-yl)azetidin-3-yl)-1,2,3,6-tetrahydropyridin-4-yl)-1H-pyrrolo[2,3-b]pyridin-6-yl)cyclopropanecarboxamide] | < 6.70 |
| CCS(=O)(=O)Oc1ccc(-c2cc(NC(=O)C3CC3)nc3[nH]ccc23)cc1 [Example 629, 4-(6-(cyclopropanecarboxamido)-1H-pyrrolo[2,3-b]pyridin-4-yl)phenyl ethanesulfonate] | 6.70 to 7.70 |
| O=C(Nc1cc(-c2ccc(OS(=O)(=O)c3ccc(F)cc3)cc2)c2cc[nH]c2n1)C1CC1 [Example 630, 4-(6-(cyclopropanecarboxamido)-1H-pyrrolo[2,3-b]pyridin-4-yl)phenyl 4-fluorobenzenesulfonate] | < 6.70 |
| CCCS(=O)(=O)Oc1ccc(-c2cc(NC(=O)C3CC3)nc3[nH]ccc23)cc1 [Example 631, 4-(6-(cyclopropanecarboxamido)-1H-pyrrolo[2,3-b]pyridin-4-yl)phenyl propane-1-sulfonate] | 6.70 to 7.70 |
| CCCCS(=O)(=O)Oc1ccc(-c2cc(NC(=O)C3CC3)nc3[nH]ccc23)cc1 [Example 632, 4-(6-(cyclopropanecarboxamido)-1H-pyrrolo[2,3-b]pyridin-4-yl)phenyl butane-1-sulfonate] | 6.70 to 7.70 |
| CC(C)S(=O)(=O)Oc1ccc(-c2cc(NC(=O)C3CC3)nc3[nH]ccc23)cc1 [Example 633, 4-(6-(cyclopropanecarboxamido)-1H-pyrrolo[2,3-b]pyridin-4-yl)phenyl propane-2-sulfonate] | 6.70 to 7.70 |

Further lines, results first:

| pIC50 | SMILES |
| --- | --- |
| < 6.70 | CC(C)(C)OC(=O)N1CC(CC#N)(N2CC=C(c3cc(NC(=O)C4CC4)nc4[nH]ccc34)CC2)C1 [Example 614, tert-butyl 3-(cyanomethyl)-3-(4-(6-(cyclopropanecarboxamido)-1H-pyrrolo[2,3-b]pyridin-4-yl)-3,6-dihydropyridin-1 (2H)-yl)azetidine-1-carboxylate] |
| > 7.70 | N#CCCCS(=O)(=O)N1CC(CC#N)(N2CC=C(c3cc(NC(=O)C4CC4)nc4[nH]ccc34)CC2)C1 [Example 618, N-(4-(1-(3-(cyanomethyl)-1-((3-cyanopropyl)sulfonyl)azetidin-3-yl)-1,2,3,6-tetrahydropyridin-4-yl)-1H-pyrrolo[2,3-b]pyridin-6-yl)cyclopropanecarboxamide] |
| > 7.70 | N#CCC1(N2CC=C(c3cc(NC(=O)C4CC4)nc4[nH]ccc34)CC2)CN(S(=O)(=O)C(F)(F)F)C1 [Example 619, N-(4-(1-(3-(cyanomethyl)-1-((trifluoromethyl)sulfonyl)azetidin-3-yl)-1,2,3,6-tetrahydropyridin-4-yl)-1H-pyrrolo[2,3-b]pyridin-6-yl)cyclopropanecarboxamide] |
| 6.70 to 7.70 | N#CCC1(N2CC=C(c3cc(NC(=O)C4CC4)nc4[nH]ccc34)CC2)CN(C2CCN(C(=O)c3nc(C(F)(F)F)cs3)CC2)C1 [Example 621, N-(4-(1-(3-(cyanomethyl)-1-(1-(4-(trifluoromethyl)thiazole-2-carbonyl)piperidin-4-yl)azetidin-3-yl)-1,2,3,6-tetrahydropyridin-4-yl)-1H-pyrrolo[2,3-b]pyridin-6-yl)cyclopropanecarboxamide] |
| 6.70 to 7.70 | N#CCC(=O)N1CCC(N2CC(CC#N)(N3CC=C(c4cc(NC(=O)C5CC5)nc5[nH]ccc45)CC3)C2)CC1 [Example 622, N-(4-(1-(1-(1-(2-cyanoacetyl)piperidin-4-yl)-3-(cyanomethyl)azetidin-3-yl)-1,2,3,6-tetrahydropyridin-4-yl)-1H-pyrrolo[2,3-b]pyridin-6-yl)cyclopropanecarboxamide] |
| 6.70 to 7.70 | N#CCC1(N2CC=C(c3cc(NC(=O)C4CC4)nc4[nH]ccc34)CC2)CN(S(=O)(=O)c2ccc(F)cc2)C1 [Example 623, N-(4-(1-(3-(cyanomethyl)-1-((4-fluorophenyl)sulfonyl)azetidin-3-yl)-1,2,3,6-tetrahydropyridin-4-yl)-1H-pyrrolo[2,3-b]pyridin-6-yl)cyclopropanecarboxamide] |
| 6.70 to 7.70 | N#CCC1(N2CC=C(c3cc(NC(=O)C4CC4)nc4[nH]ccc34)CC2)CN(C(=O)NCC(F)(F)F)C1 [Example 624, 3-(cyanomethyl)-3-(4-(6-(cyclopropanecarboxamido)-1H-pyrrolo[2,3-b]pyridin-4-yl)-3,6-dihydropyridin-1 (2H)-yl)-N-(2,2,2-trifluoroethyl)azetidine-1-carboxamide] |
| 6.70 to 7.70 | N#CCC1(N2CC=C(c3cc(NC(=O)C4CC4)nc4[nH]ccc34)CC2)CN(C(=O)CC(F)(F)F)C1 [Example 625, N-(4-(1-(3-(cyanomethyl)-1-(3,3,3-trifluoropropanoyl)azetidin-3-yl)-1,2,3,6-tetrahydropyridin-4-yl)-1H-pyrrolo[2,3-b]pyridin-6-yl)cyclopropanecarboxamide] |
| > 7.70 | CCS(=O)(=O)N1CC(CC#N)(N2CC=C(c3cc(NC(=O)C4CC4)nc4[nH]ccc34)C(C)C2)C1 (stereo not drawn) [Example 626, N-(4-(1-(3-(cyanomethyl)-1-(ethylsulfonyl)azetidin-3-yl)-3-methyl-1,2,3,6-tetrahydropyridin-4-yl)-1H-pyrrolo[2,3-b]pyridin-6-yl)cyclopropanecarboxamide] |
| > 7.70 | CCS(=O)(=O)N1CC(CC#N)(N2CC=C(c3cc(NC(=O)C4CC4)nc4[nH]ccc34)[C@H](C)C2)C1 [Example 627, (S)—N-(4-(1-(3-(cyanomethyl)-1-(ethylsulfonyl)azetidin-3-yl)-3-methyl-1,2,3,6-tetrahydropyridin-4-yl)-1H-pyrrolo[2,3-b]pyridin-6-yl)cyclopropanecarboxamide] |
| > 7.70 | C[C@@H]1CN(C2(CC#N)CN(S(=O)(=O)C(F)(F)F)C2)CC=C1c1cc(NC(=O)C2CC2)nc2[nH]ccc12 [Example 628, (S)—N-(4-(1-(3-(cyanomethyl)-1-((trifluoromethyl)sulfonyl)azetidin-3-yl)-3-methyl-1,2,3,6-tetrahydropyridin-4-yl)-1H-pyrrolo[2,3-b]pyridin-6-yl)cyclopropanecarboxamide] |
